Experimental data as given in US20070086956A1, “Method for accelerating the rate of mucociliary clearance” (BAYER AKTIENGESELLSCHAFT, priority 1998, published 2007).

How the values were obtained:
[1] = molecular target: T1, human neutrophil elastase (Homo sapiens, UniProt P08246); experiment: Inhibition of human neutrophil elastase, Ki (Dixon plots); assay type: biochemical; conditions: Table 4A; elastase
T1 sequence (P08246 30-267): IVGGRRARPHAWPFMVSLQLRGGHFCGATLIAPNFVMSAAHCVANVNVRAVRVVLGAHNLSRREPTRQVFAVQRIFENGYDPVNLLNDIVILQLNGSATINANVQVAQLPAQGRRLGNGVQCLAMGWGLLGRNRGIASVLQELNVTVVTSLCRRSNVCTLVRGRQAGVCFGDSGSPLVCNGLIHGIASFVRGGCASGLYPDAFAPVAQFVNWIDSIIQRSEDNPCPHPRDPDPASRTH
Method: […] Ki values were determined from Dixon plots of the form 1/V versus performed at two different substrate concentrations (Dixon et al., 1979).

[2] = Isoelectric point by isoelectric focusing; assay type: physicochemical
Method: After staining, the migration distance from the cathodic edge of the gel to the different protein bands was measured. The pI of each unknown was determined by using a standard curve generated by a plot of the migration distance of standards versus the corresponding pI's. […] (Tenstad et al., 1994, Acta Physiol. Scand. 152: 33-50).

[3] = molecular target: bovine pancreatic kallikrein; experiment: Inhibition of bovine pancreatic kallikrein, Ki; assay type: biochemical; conditions: Table 4A; Bovine Pancreatic Kallikrein (92.0 pM)
Method: After 5 min. at 37° C., 15 μl of 2 mM GPK-AMC was added and the change in fluorescence (as above) was monitored. […] After 5 min. incubation at 37° C., 25 μl of 20 mM GPK-AMC was added and the change in fluorescence monitored. […] After 5 min. at 37° C. 15 μl of 20 mM PFR-AMC was added and the change in fluorescence monitored.

In the case of `CC[C@H](C)[C@H](N)C(=O)N[C@@H](Cc1c[nH]cn1)C(=O)N[C@@H](CC(=O)O)C(=O)N[C@@H](Cc1ccccc1)C(=O)N[C@H]1CSSC[C@@H](C(=O)N[C@@H](C)C(=O)N[C@H](C(=O)N[C@H](C(=O)O)C(C)C)[C@@H](C)O)NC(=O)[C@H](CCCCN)NC(=O)[C@H](CCCCN)NC(=O)[C@H](CC(C)C)NC(=O)[C@@H]2CSSC[C@@H]3NC(=O)[C@H](CO)NC(=O)CNC(=O)[C@H](CC(=O)O)NC(=O)[C@H]([C@@H](C)O)NC(=O)[C@H](C(C)C)NC(=O)[C@H](CC(N)=O)NC(=O)[C@H](Cc4ccc(O)cc4)NC(=O)[C@H](Cc4c[nH]c5ccccc45)NC(=O)[C@H](Cc4c[nH]c5ccccc45)NC(=O)[C@H](CCCNC(=N)N)NC(=O)[C@@H]4CCCN4C(=O)[C@H](CCSC)NC(=O)[C@H](CO)NC(=O)[C@H](C)NC(=O)[C@H](CCCNC(=N)N)NC(=O)[C@H](CSSC[C@H](NC(=O)CNC(=O)CNC(=O)[C@H](Cc4ccc(O)cc4)NC(=O)[C@H](C(C)C)NC(=O)[C@H](Cc4ccccc4)NC(=O)[C@H](CC(C)C)NC(=O)[C@H](CCC(N)=O)NC3=O)C(=O)N[C@@H](CC(=O)O)C(=O)NCC(=O)N[C@@H](CC(N)=O)C(=O)N[C@@H](CO)C(=O)N[C@@H](CC(N)=O)C(=O)N[C@@H](CC(N)=O)C(=O)N[C@@H](Cc3ccc(O)cc3)C(=O)N[C@@H](CC(C)C)C(=O)N[C@@H]([C@@H](C)O)C(=O)N[C@@H](CCCCN)C(=O)N[C@@H](CCC(=O)O)C(=O)N[C@@H](CCC(=O)O)C(=O)N2)NC(=O)[C@H](CCCNC(=N)N)NC(=O)CNC(=O)[C@H](C(C)C)NC(=O)[C@H](C(C)C)NC(=O)[C@H](CCCCN)NC(=O)[C@H](CO)NC(=O)[C@H](C(C)C)NC(=O)[C@H](CC(C)C)NC1=O` [bikunin (7-64)], the Ki [1] is reported as greater than 100 nM, the pI ([2]; first preparation of bikunin (7-64) (possibly not completely deprotected), migrated to the cathodic edge of the gel (pH 9.5)) is reported as “much higher than the predicted value” and the pI ([2]; refolded purified protein, Ampholine PAGplate (pH 3.5 to 9.5)) is reported as 8.85. It also gave a Ki [3] of 0.4 nM.
